What was measured:
[1] = system: sPLA2; settings: cited from earlier work
[2] = system: human subjects with stable CAD; experiment: Change in HDL levels at eight weeks, A-002 and/or niacin drugs, subjects with stable CAD; settings: for Baseline Mean HDL: before trial period; for Baseline Mean HDL / Week 8 Mean HDL: stable CAD; for Difference versus placebo (HDL % change) / % change versus baseline (HDL) / Week 8 Mean HDL: week 8; for % change versus baseline (HDL): ANCOVA subject-specific percent change from baseline; for Change from baseline (mean HDL): week 8 versus baseline
From the text: (§1) 46 subjects from the above once-a-day and twice-a-day A-002 studies were identified as receiving niacin drugs before and during the trial period. 45 of these 46 subjects were also receiving one or more statins before and during the trial period. The niacin drugs included niacin, nicotinic acid, acipimox, ERN (Niaspan®), Niaspan® in combination with lovastatin (Advicor®), and/or Niaspan® in combination with simvastatin (Simcor®). Of the 46 niacin subjects, twelve were concomitantly administered placebo rather than A-002 (i.e., niacin drug only), four were administered 100 mg of A-002 daily, five were administered 200 mg of A-002 daily, five were administered 250 mg of A-002 daily, thirteen were administered 500 mg of A-002 daily, and seven were administered 1000 mg of A-002 daily.
(§2) The change from baseline HDL and TG levels at eight weeks was determined for each of the subjects receiving niacin drugs, and the percentage increase or decrease in these levels was determined using an analysis of covariance (ANCOVA) model that calculated subject-specific percent change from baseline.

[3] = system: human subjects with stable CAD; experiment: Change in TG levels at eight weeks, A-002 and/or niacin drugs, subjects with stable CAD; settings: for Baseline Mean TG: before trial period; for Baseline Mean TG / Week 8 Mean TG: stable CAD; for Difference versus placebo (TG % change) / % change versus baseline (TG) / Week 8 Mean TG: week 8; for % change versus baseline (TG): ANCOVA subject-specific percent change from baseline; for Change from baseline (mean TG): week 8 versus baseline
From the text: as §1, §2

[4] = cited from earlier work
[5] = system: human subjects with stable CAD; settings: oral, once or twice a day, total daily 100-1000 mg, all dosages tested; 361 subjects; cited from earlier work
[6] = eight weeks, magnitude of decrease

Row | SMILES | type of sPLA2 inhibition [1] | Baseline Mean HDL [2] [mg/dL] | decrease in HDL versus baseline [2, 6] [%] | decrease in HDL versus placebo [2, 6] [%] | Difference versus placebo (HDL % change) [2] | % change versus baseline (HDL) [2] [%] | Week 8 Mean HDL [2] [mg/dL] | Change from baseline (mean HDL) [2] [mg/dL] | Baseline Mean TG [3] [mg/dL] | increase in TG versus placebo ([3]; eight weeks, magnitude of increase) [%] | Difference versus placebo (TG % change) [3] | % change versus baseline (TG) [3] | Week 8 Mean TG [3] [mg/dL] | Change from baseline (mean TG) [3] | terminal half-life (t1/2) ([4]; in vivo) | absorption and hydrolysis to the active A-001 molecule ([4]; prodrug) | serum LDL, LDL particle, small LDL particle, oxidized LDL, total cholesterol, ApoB, TG, sPLA2, CRP, and IL-6 levels [5]
1 | CCc1c(C(=O)C(N)=O)c2c(OCC(=O)O)cccc2n1Cc1ccccc1 [A-001] | competitive inhibitor |  |  |  |  |  |  |  |  |  |  |  |  |  |  |  | 
2 | O=C(O)c1cccnc1 [Niacin, pyridine-3-carboxylic acid] |  | 50.67 | 6.2 | 3.9 | −3.9% | −6.2 | 46.75 | -3.92 | 129.25 | 3.4 | +3.4% | +9.7% | 133.42 | +4.17 mg/dl |  |  | 
3 | CCc1c(C(=O)C(N)=O)c2c(OCC(=O)OC)cccc2n1Cc1ccccc1 [A-002, [[3-(2-Amino-1,2-dioxoethyl)-2-ethyl-1-(phenylmethyl)-1H-indol-4-yl]oxy]acetic acid methyl ester] |  | 47.80 | 2.0 |  | +0.3% | −2.0 | 46.28 | -1.52 | 165.83 |  | −2.6% | −3.7% | 159.04 | -6.79 mg/dL | approximately ten | rapidly absorbed and hydrolyzed | decrease

Source: patent US20100204249A1, “SECRETORY PHOSPHOLIPASE A2 (SPLA2) INHIBITOR AND NIACIN DRUG COMPOSITIONS AND METHODS FOR TREATING CARDIOVASCULAR DISEASE AND DYSLIPIDEMIA” (priority 2009, published 2010)
